Assay results as given in PMC5794259, “Novel ATP-cone-driven allosteric regulation of ribonucleotide reductase via the radical-generating subunit” (eLife, 2018).
“And” between values parts separate entries of the source, which are not always exact repeats. Equal values may be shown once.

Experiments:
[1] = test system: L. blandensis class I RNR; assay: Four-substrate activity assay, allosteric specificity regulation; assay type: biochemical, Leeuwenhoekiella blandensis; conditions: all four substrates 0.5 mM each, effector 2 mM, 1 µM NrdB and 4 µM NrdA
Method: (§1) Enzyme assays were performed at room temperature in 50 mM Tris-HCl at pH 8 in volumes of 50 μl. Reaction conditions, giving maximal activity were determined experimentally. […] Mixtures of 0.5 μM NrdA and 2 μM wild type NrdB or NrdB∆99 (for determination of s-site KL) (Figure 3a–b) or 0.5 μM of NrdB and 2 uM NrdA (for determination of a-site KL), (Figure 3c–f) were used. Some components were explicitly varied in specific experiments. Generally, 0.8 mM CDP was used as substrate. […] When dTTP was used as an s-site effector, 0.5 mM or 0.8 mM GDP was used as substrate. In four substrate assays, the four substrates CDP, ADP, GDP and UDP were simultaneously present in the mixture at concentrations of 0.5 mM each. The substrate mixture was added last to start the reactions. Certain assays were performed in the presence of Mn(CH3COO)2 or FeNH4(SO4): 20 μM of the indicated metal was added to 10 μM NrdB or NrdB∆99 protein, incubated for 10 min, mixed with NrdA and added to the reaction mixture.
(§2) Enzyme reactions were incubated for 10–30 min and then stopped by the addition of methanol. The chosen incubation time gave a maximum substrate turnover of 30%. […] Compound identification was achieved by comparison with injected standards. Relative quantification was obtained by peak height measurements in the chromatogram (UV absorbance at 271 nm) in relation to standards. Specific activities of either NrdA (Figure 2a–b) or NrdB (Figure 2c–f) were determined. Specific activities varied between protein preparations. In some cases the data was standardized to activity percent, where 100% was determined as maximum enzyme activity in a specific condition.

[2] = biological target: L. blandensis RNR, a-site (NrdB-linked ATP-cone) (Leeuwenhoekiella blandensis, UniProt A3XHF9); assay: Enzyme activity assay with wild type NrdB (overall activity regulation, a-site); assay type: biochemical
Method: as §1, §2
(§3) From a direct plot of activity versus concentration of effector, the KL values for binding of effectors to the s-site and the a-site, were calculated in SigmaPlot using the equation: V=Vmax×[dNTP]/(KL+[dNTP]) and Ki for non-competitive dATP inhibition at NrdB was calculated in Sigmaplot using the equation: V=Vmax/(1+[dNTP]/Ki)

s-site in NrdA = biological target: T1, s-site in NrdA (Leeuwenhoekiella blandensis, UniProt A3XHF8); assay: Enzyme activity assay, CDP reduction, effector titration with NrdB∆99 (s-site); assay type: biochemical; conditions: 0.5 µM NrdA and 2 µM NrdB∆99, read-out: KL (s-site), concentration of allosteric effector that gives half maximal enzyme activity
T1 sequence (A3XHF8 1-600): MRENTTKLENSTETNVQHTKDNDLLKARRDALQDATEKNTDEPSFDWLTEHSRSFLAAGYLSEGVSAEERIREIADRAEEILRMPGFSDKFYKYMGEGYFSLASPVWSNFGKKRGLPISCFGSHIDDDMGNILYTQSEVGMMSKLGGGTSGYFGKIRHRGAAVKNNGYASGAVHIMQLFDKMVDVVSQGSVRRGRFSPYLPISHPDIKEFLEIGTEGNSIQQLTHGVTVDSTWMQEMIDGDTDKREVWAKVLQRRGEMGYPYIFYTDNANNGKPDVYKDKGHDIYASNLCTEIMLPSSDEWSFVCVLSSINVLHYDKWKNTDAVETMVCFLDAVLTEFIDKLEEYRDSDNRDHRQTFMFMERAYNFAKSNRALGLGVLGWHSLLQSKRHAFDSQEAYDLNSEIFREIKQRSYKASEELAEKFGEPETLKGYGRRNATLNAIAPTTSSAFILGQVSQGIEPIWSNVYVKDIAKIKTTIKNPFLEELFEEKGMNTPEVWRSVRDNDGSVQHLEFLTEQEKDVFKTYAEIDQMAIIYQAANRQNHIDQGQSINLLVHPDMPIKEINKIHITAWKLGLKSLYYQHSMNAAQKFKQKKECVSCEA
T1 sequence (A3XHF9 100-427 partner): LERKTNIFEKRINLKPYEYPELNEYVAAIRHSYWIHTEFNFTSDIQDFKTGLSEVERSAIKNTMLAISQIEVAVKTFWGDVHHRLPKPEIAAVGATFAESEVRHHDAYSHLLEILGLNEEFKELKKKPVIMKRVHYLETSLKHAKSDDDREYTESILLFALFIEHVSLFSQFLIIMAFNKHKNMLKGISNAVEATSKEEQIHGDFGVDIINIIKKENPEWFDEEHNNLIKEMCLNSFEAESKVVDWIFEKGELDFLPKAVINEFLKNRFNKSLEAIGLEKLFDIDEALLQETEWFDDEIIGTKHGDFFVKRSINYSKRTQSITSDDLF
Method: (§4) Enzyme assays were performed at room temperature in 50 mM Tris-HCl at pH 8 in volumes of 50 μl. Reaction conditions, giving maximal activity were determined experimentally. […] Mixtures of 0.5 μM NrdA and 2 μM wild type NrdB or NrdB∆99 (for determination of s-site KL) (Figure 3a–b) or 0.5 μM of NrdB and 2 uM NrdA (for determination of a-site KL), (Figure 3c–f) were used. Some components were explicitly varied in specific experiments. Generally, 0.8 mM CDP was used as substrate. […] When dTTP was used as an s-site effector, 0.5 mM or 0.8 mM GDP was used as substrate. […]
Enzyme reactions were incubated for 10–30 min and then stopped by the addition of methanol. […] Relative quantification was obtained by peak height measurements in the chromatogram (UV absorbance at 271 nm) in relation to standards. Specific activities of either NrdA (Figure 2a–b) or NrdB (Figure 2c–f) were determined. […] In some cases the data was standardized to activity percent, where 100% was determined as maximum enzyme activity in a specific condition.
as §3

NrdB [3] = biological target: T2, NrdB (Leeuwenhoekiella blandensis, UniProt A3XHF9); assay: Isothermal titration calorimetry (ITC), nucleotide binding to NrdB; conditions: for Kd: one-set-of-sites model; for N (binding stoichiometry): per NrdB monomer, for dATP kept constant N = 2, 59% active protein
Method: Isothermal titration calorimetry (ITC) experiments were carried out on a MicroCal PEAQ-ITC system (Malvern Instruments Ltd) in a buffer containing 25 mM HEPES (pH 7.65), 150 mM NaCl, and 10% glycerol, 2 mM tris(2-carboxyethyl)phosphine, and 5 mM MgCl2. Measurements were done at 10°C. The initial injection volume was 0.4 μl over a duration of 0.8 s. All subsequent injection volumes were 2–2.5 μl over 4–5 s with a spacing of 150 s between the injections. Data for the initial injection were not considered. For dATP binding analysis, the concentration of NrdB in the cell was 12 µM and dATP in syringe 120 or 140 µM. Reverse titrations were performed with 113 µM NrdB in the syringe and 12 or 30 µM dATP in the cell. For titration of dATP into NrdB∆99, protein concentration in the cell and dATP concentration in the syringe were 50 µM and 900 µM respectively. […] For titration of ATP into NrdB, cell and syringe concentrations were 50 and 1600 µM respectively. The data were analyzed using the built-in one set of sites model of the MicroCal PEAQ-ITC Analysis Software (Malvern Instruments Ltd). A fixed ligand/protein stoichiometry of 2 was used for dATP to NrdB titrations. Standard deviations in thermodynamic parameters, N and Kd were estimated from the fits of three different titrations.

[4] = test system: L. blandensis RNR (wild-type NrdB or NrdB∆99); assay: Metal-dependency of enzyme activity; assay type: biochemical, Leeuwenhoekiella blandensis; conditions: metal added to cultures or 20 µM divalent metal ions to 10 µM NrdB
Method: Overnight cultures of E. coli BL21(DE3)/pET28a(+) bearing pET-nrdA, pET-nrdB and pET-nrdB∆99 were diluted to an absorbance at 600 nm of 0.1 in LB (Luria-Bertani) liquid medium, containing kanamycin (50 μg/ml) and shaken vigorously at 37°C. At an absorbance at 600 nm of 0.8, isopropyl-β-D-thiogalactopyranoside (Sigma) was added to a final concentration of 0.01 mM for NrdA expression and 0.5 mM for NrdB and NrdB∆99 expression. For particular experiments, 0.5 mM MnSO4 or 0.5 mM FeNH4(SO4)2 or the combination of both metals (0.4 mM and 0.25 mM respectively) were added to NrdB∆99 cultures. The cells were grown overnight at 14°C for NrdA expression and 20°C for NrdB and NrdB∆99 expression and harvested by centrifugation.
as §4

NrdB [5] = biological target: T2, NrdB; assay: GEMMA analysis of NrdB oligomers
Method: In GEMMA, biomolecules are electrosprayed into gas phase, neutralized to singly charged particles, and the gas phase electrophoretic mobility is measured with a differential mobility analyzer. The mobility of an analyzed particle is proportional to its diameter, which therefore allows for quantitative analysis of the different particle sizes contained in a sample ([Kaufman et al., 1996]). The GEMMA instrumental setup and general procedures were as described previously ([Rofougaran et al., 2008]). NrdA, NrdB and NrdB∆99 proteins were equilibrated by Sephadex G-25 chromatography into a buffer containing 100 mM ammonium acetate, pH 7.8. In addition, 2 mM DTT was added to the NrdA protein solutions to increase protein stability. Prior to GEMMA analysis, the protein samples were diluted to a concentration of 0.025–0.1 mg/ml in a buffer containing 20 mM ammonium acetate, pH 7.5, 0.005% (v/v) Tween 20, nucleotides (when indicated), and magnesium acetate (equimolar to the total nucleotide concentration), incubated for 5 min at room temperature, centrifuged and applied to the GEMMA instrument. Protein concentrations higher than normally recommended for GEMMA were needed to see the larger oligomeric complexes and the experiments to measure NrdA-NrdB interactions were run at as low flow rate as possible (driven by 1.4 Psi pressure) to minimize false interactions that may appear with elevated protein concentration if the flow-rate recommended by the manufacturer is used (3.7 Psi). Most of our experiments were performed with a flow rate driven by 2 Psi.

[6] = biological target: the molecule itself; assay: SEC; with ATP; Superdex 200 10/300 GL at room temperature; 50 mM Tris-HCl pH 7.6, 150 mM KCl, 10 mM MgCl2; NrdB 10 µM
[7] = biological target: the molecule itself; assay: GEMMA (gas-phase electrophoretic macromolecule analysis); with 50 µM dATP and equimolar magnesium acetate; 20 mM ammonium acetate pH 7.5, 0.005% Tween 20; NrdB 0.1 mg/ml (~2 µM) or NrdB∆99

Molecule	effect of s-site effector on substrate reduction [1]	EC50 (s-site in NrdA) [µM]	-TΔS (NrdB [3]; 10°C) [kcal/mol]	ΔG (NrdB [3]; 10°C) [kcal/mol]	Kd (NrdB [3]; 10°C) [µM]	N (binding stoichiometry) (NrdB [3]; 10°C)	further results
Nc1ncnc2c1ncn2[C@@H]1O[C@H](COP(=O)(O)OP(=O)(O)OP(=O)(O)O)[C@@H](O)[C@H]1O [ATP]	stimulated the reduction of CDP and UDP	30	4.78 ± 0.96	-5.74	38 ± 2	2.2 and 2.2 ± 0.4	EC50 [2]: 96 µM; effect on enzyme activity ([2]; CDP reduction, 0.5 µM NrdA and 2 µM wild type NrdB): clearly activated the enzyme; lower affinity compared to dATP (NrdB [3]; from Kd, ITC): 38 fold
Cc1cn([C@H]2C[C@H](O)[C@@H](COP(=O)(O)OP(=O)(O)OP(=O)(O)O)O2)c(=O)[nH]c1=O [dTTP]	stimulated the reduction of GDP	–	–	–	–	–	–
CC(=O)[O-].CC(=O)[O-].[Mn+2] [Mn, Mn(CH3COO)2]	–	–	–	–	–	–	effect of metal on catalytic activity [4]: increase in catalytic activity
Nc1ncnc2c1ncn2[C@H]1C[C@H](O)[C@@H](COP(=O)(O)OP(=O)(O)OP(=O)(O)O)O1 [dATP]	–	1.4	11.2 ± 2.39	-7.89	1 ± 0.2	2	Ki [2]: 20 µM; concentration at which inhibitory ([2]; CDP reduction, 0.5 µM NrdA and 2 µM wild type NrdB, activates at low concentrations): ≥ 30 µM; effect on NrdB oligomer equilibrium (NrdB [5]; 50 µM nucleotide, 0.1 mg/ml NrdB (~2 µM)): dramatically shifted the equilibrium towards tetramers β4; EC50 (NrdB [5]; GEMMA, 2 Psi, NrdB (~1 μM), read-out: concentration at which NrdB tetramers reach half-maximum mass concentration): ~10 µM; ΔH (NrdB [3]; 10°C): -18.9 kcal/mol and -18.9 ± 2.39 kcal/mol
Nc1ncnc2c1ncn2[C@@H]1O[C@H](COP(=O)(O)O)[C@@H](O)[C@H]1O [AMP]	–	–	–	–	–	–	interaction with the a-site (effect on GDP reduction) ([2]; 2 mM nucleotide, s-site saturating dTTP (2 mM), 4 µM NrdA and 1 µM NrdB): no effect
Leeuwenhoekiella blandensis NrdBi (wild type NrdB, radical-generating subunit of class I ribonucleotide reductase) (enzyme, UniProt A3XHF9 1-427, looked up, NrdBi, radical-generating subunit of the class I RNR of Leeuwenhoekiella blandensis sp. nov. strain MED217; GenBank EAQ51288; amplified from genomic DNA with primers from the start codon to the stop codon; ATP-cone 1-103, linker 104-106, core 107-398, C-terminus 399-427; pET-28a(+) construct with N-terminal hexahistidine tag and thrombin site; Oligomeric state depends on nucleotide: dimer with …) MSSQEIKKIIKRDYSTAPFVLEKITNAIANAMAALGHGSEQDAKLISMQVYESLLNNKEQESEYIPTVEQVQDMVEDKLMSSEFHDVAKAYIIYRNKRALERKTNIFEKRINLKPYEYPELNEYVAAIRHSYWIHTEFNFTSDIQDFKTGLSEVERSAIKNTMLAISQIEVAVKTFWGDVHHRLPKPEIAAVGATFAESEVRHHDAYSHLLEILGLNEEFKELKKKPVIMKRVHYLETSLKHAKSDDDREYTESILLFALFIEHVSLFSQFLIIMAFNKHKNMLKGISNAVEATSKEEQIHGDFGVDIINIIKKENPEWFDEEHNNLIKEMCLNSFEAESKVVDWIFEKGELDFLPKAVINEFLKNRFNKSLEAIGLEKLFDIDEALLQETEWFDDEIIGTKHGDFFVKRSINYSKRTQSITSDDLF	–	–	–	–	–	–	stoichiometry N [6]: 2; stoichiometry N [7]: 4
